Source: patent EP4722211A1, “FGFR2/3 SELECTIVE INHIBITOR, PHARMACEUTICAL COMPOSITION AND USE THEREOF” (Changchun Genescience Pharmaceutical Co., Ltd., priority 2023, dated 2024)
Read-outs that look alike come from different tables or passages of the source.

Tests used:
Ba/F3-FGFR1 cells = test: Cell proliferation inhibition, CTG method (Ba/F3-FGFR1); assay type: cell-based; conditions: 72 hrs
Description: (§1) The CTG method was used to detect the inhibitory effect of the compound on the proliferation of Ba/F3-FGFR1, Ba/F3-FGFR2, Ba/F3-FGFR3, and Ba/F3-FGFR4 cells. The highest concentration tested was 3000 nM, which was three-fold diluted to give 10 concentrations. The test was duplicated.
(§2) • a) Ba/F3-FGFR1, Ba/F3-FGFR2, Ba/F3-FGFR3, and Ba/F3-FGFR4 were cultured to exponential growth period for later use. […] 30 µL of Ba/F3-FGFR1, Ba/F3-FGFR2, Ba/F3-FGFR3, or Ba/F3-FGFR4 (500/well) was uniformly seeded in a 384-well black-edge cell culture plate containing the compound, having the wells at the edge blocked with 50 µL PBS, and cultured in an incubator with CO2 at 37°C for 72 hrs. • d) 30 µL of Cell-Titer-Glo reagent was added to each well, shaken and mixed evenly on a shaker, and then incubated at 37°C for 30 min. Then the signal was detected on a microplate reader after the signal was stable.

Ba/F3-FGFR2 cells = test: Cell proliferation inhibition, CTG method (Ba/F3-FGFR2); assay type: cell-based; conditions: 72 hrs
Description: as §1, §2

Ba/F3-FGFR3 cells = test: Cell proliferation inhibition, CTG method (Ba/F3-FGFR3); assay type: cell-based; conditions: 72 hrs
Description: as §1
• a) Ba/F3-FGFR1, Ba/F3-FGFR2, Ba/F3-FGFR3, and Ba/F3-FGFR4 were cultured to exponential growth period for later use. Complete medium: RPMI1640 medium, 10% FBS, 1% GlutaMAX and P/S, 10 ng/mL FGF1, 10 µg/mL Heparin,10 µM 2-mercaptoethanol, 2 µg/mL puromycin. • b) The stock solution of the compound of 3000 nM was diluted into a 384 cell culture plate using the ECHO liquid handling station, and centrifuged at 1000 g for 1 min. • c) The cells were digested. 30 µL of Ba/F3-FGFR1, Ba/F3-FGFR2, Ba/F3-FGFR3, or Ba/F3-FGFR4 (500/well) was uniformly seeded in a 384-well black-edge cell culture plate containing the compound, having the wells at the edge blocked with 50 µL PBS, and cultured in an incubator with CO2 at 37°C for 72 hrs. • d) 30 µL of Cell-Titer-Glo reagent was added to each well, shaken and mixed evenly on a shaker, and then incubated at 37°C for 30 min. Then the signal was detected on a microplate reader after the signal was stable.

Ba/F3-FGFR4 cells = test: Cell proliferation inhibition, CTG method (Ba/F3-FGFR4); assay type: cell-based; conditions: 72 hrs
Description: as §1, §2

[1] = Pharmacokinetic study in SD rats after oral gavage, plasma by LC/MS/MS; assay type: in vivo; conditions: rat, 2 mg/kg, 2mpk; for AUC(0-inf): read-out: AUCINF_pred; for MRT inf: read-out: MRTINF_pred
Description: The SD rats were used as test animals. The drug concentration in plasma at different time points was determined by LC/MS/MS method after the compound of the present invention was administered to the SD rats by oral gavage. The pharmacokinetic behavior of the compound of the present invention in SD rats was studied and the pharmacokinetic characteristics were evaluated.
24 SD Rat rats (female:male 1:1), purchased from Shanghai Ji Hui Laboratory Animal Breeding Co., Ltd., animal production license SCXK (Shanghai) 2017-0012, were divided into 6 groups.
The prescription was 5% DMSO + 60% PEG300 + 35% glucose aqueous solution. A proper amount of the representative compound of the present invention (converted according to the purity and salt coefficient) was weighed. A prescribed amount of DMSO was added, and a clear and transparent solution was obtained by vortex. Then a prescribed amount of PEG300 was added, and mixed by vortex. Then, a prescribed amount of a glucose aqueous solution was added. A 0.6 mg/mL or 2 mg/mL solution was obtained. During the preparation, if a solution cannot be obtained, ultrasonication in a water bath at a temperature not higher than 60°C can be performed to facilitate the dissolution.
Rats were administered by oral gavage (2mpk) after fasting for one night.
At 15 min, 30 min, 1 hr, 2 hrs, 4 hrs, 6 hrs, 8 hrs, and 24 hrs after administration, about 30 µL blood samples were collected into an anticoagulation tube containing the anticoagulant EDTA-K2, and centrifuged within 30 minutes to obtain the plasma. The whole blood sample was placed on wet ice before centrifugation. All of the collected plasma samples were stored on dry ice or at a temperature not higher than -70°C before analysis and detection. Liquid chromatography-tandem mass spectrometry (LC/MS/MS) was used to determine the original drug concentration in the plasma and the administered solution.

FGFR1 = target: T1, FGFR1 (Homo sapiens, UniProt P11362); test: Kinase inhibitory activity by HTRF method (FGFR1); assay type: biochemical; conditions: highest concentration 3000 nM, 10 concentrations, duplicate
T1 construct: purchased Invitrogen PR4660A
T1 sequence (P11362 22-822): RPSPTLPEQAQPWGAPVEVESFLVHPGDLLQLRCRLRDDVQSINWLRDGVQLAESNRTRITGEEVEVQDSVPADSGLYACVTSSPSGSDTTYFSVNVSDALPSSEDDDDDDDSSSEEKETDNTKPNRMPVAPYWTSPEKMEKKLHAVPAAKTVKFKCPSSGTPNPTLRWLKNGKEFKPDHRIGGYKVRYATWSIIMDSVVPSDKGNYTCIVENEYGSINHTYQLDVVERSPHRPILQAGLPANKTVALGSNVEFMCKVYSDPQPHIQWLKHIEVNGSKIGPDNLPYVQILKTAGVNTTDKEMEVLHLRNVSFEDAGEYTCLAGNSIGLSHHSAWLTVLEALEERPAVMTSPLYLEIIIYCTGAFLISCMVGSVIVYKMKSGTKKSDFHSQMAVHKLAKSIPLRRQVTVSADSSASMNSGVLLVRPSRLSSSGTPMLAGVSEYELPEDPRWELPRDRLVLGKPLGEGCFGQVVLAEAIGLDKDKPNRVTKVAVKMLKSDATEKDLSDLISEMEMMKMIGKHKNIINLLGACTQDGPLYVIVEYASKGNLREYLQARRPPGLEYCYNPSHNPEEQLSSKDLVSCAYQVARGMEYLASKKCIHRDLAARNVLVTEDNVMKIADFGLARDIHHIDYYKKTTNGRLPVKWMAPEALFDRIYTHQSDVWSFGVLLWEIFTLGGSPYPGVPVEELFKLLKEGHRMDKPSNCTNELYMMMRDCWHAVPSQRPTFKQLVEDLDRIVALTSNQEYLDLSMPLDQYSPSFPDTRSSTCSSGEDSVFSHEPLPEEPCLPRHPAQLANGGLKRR
Description: (§3) The inhibitory activity of the compounds on FGFR1 and FGFR3 kinases was tested by HTRF method. The highest concentration tested was 3000 nM, which was three-fold diluted to give 10 concentrations. The test was duplicated. […]

FGFR3 = target: T2, FGFR3 (Homo sapiens, UniProt P22607); test: Kinase inhibitory activity by HTRF method (FGFR3); assay type: biochemical; conditions: highest concentration 3000 nM, 10 concentrations, duplicate
T2 construct: purchased Invitrogen PR4631B
T2 sequence (P22607 23-806): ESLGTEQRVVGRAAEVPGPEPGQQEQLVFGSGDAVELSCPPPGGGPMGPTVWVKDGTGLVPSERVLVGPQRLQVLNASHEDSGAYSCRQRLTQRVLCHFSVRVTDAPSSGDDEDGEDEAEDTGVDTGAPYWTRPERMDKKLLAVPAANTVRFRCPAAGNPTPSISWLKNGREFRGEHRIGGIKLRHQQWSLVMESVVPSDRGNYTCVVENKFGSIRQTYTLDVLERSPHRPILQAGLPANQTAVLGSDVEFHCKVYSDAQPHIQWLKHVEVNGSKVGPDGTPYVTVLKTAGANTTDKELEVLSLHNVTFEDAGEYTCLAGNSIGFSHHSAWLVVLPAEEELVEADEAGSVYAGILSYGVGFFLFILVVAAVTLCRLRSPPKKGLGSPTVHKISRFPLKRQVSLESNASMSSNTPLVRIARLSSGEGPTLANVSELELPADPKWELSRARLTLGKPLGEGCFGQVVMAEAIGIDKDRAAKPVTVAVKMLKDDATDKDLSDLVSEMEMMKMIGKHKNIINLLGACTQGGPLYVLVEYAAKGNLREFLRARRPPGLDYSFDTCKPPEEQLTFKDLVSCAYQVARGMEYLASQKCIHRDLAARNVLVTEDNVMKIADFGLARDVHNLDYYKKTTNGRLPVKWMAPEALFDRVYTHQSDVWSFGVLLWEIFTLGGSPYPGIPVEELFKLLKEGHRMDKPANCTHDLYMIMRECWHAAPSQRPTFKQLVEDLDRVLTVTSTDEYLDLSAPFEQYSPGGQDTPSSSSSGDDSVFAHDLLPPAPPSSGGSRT
Description: as §3

[2] = both sexes, Sprague-Dawley (SD)

SMILES	IC50 (Ba/F3-FGFR1 cells) [nM]	IC50 (Ba/F3-FGFR2 cells) [nM]	IC50 (Ba/F3-FGFR3 cells) [nM]	IC50 (Ba/F3-FGFR4 cells) [nM]	further results
C[C@@H](Oc1ccc2[nH]nc(-c3cnc(C4=CCS(=O)(=O)CC4)c(F)c3)c2n1)c1c(Cl)cncc1Cl [Cpd-03A, (R)-4-(5-(5-(1-(3,5-dichloropyridin-4-yl)ethoxy)-1H-pyrazolopyridin-3-yl)-3-fluoropyridin-2-yl)-3,6-dihydro-2H-thiapyran 1,1-dioxide]	14.2	8.4	4.2	33.8	AUC(0-t) [1]: 86.2 ng·h/mL; Cmax [1]: 24.4 ng/mL; Tmax [1]: 1 h; half-life [1]: 1.5 h; AUC(0-inf) [1]: 91.5 ng·h/mL; MRT inf [1]: 2 h
Cc1nn(CC(C)(C)O)c(C)c1-c1ncc(-c2n[nH]c3ccc(O[C@H](C)c4c(Cl)cncc4Cl)nc23)cc1F [Cpd-161A, (R)-1-(4-(5-(5-(1-(3,5-dichloropyridin-4-yl)ethoxy)-1H-pyrazolo[4,3-b]pyridin-3-yl)-3-fluoropyridin-2-yl)-3,5-dimethyl-1H-pyrazol-1-yl)-2-methyl-2-propanol]	98.3	11.7	15.4	237	–
CC(Oc1ccc2[nH]nc(-c3ccc(S(C)(=N)=O)nc3)c2n1)c1c(Cl)cncc1Cl (single isomer, unassigned) [Cpd-01C, (5-(5-(1-(3,5-dichloropyridin-4-yl)ethoxy)-1H-pyrazolo[4,3-b]pyridin-3-yl)pyridin-2-yl)(imino)(methyl)-λ^6-sulfonyl ketone]	–	–	–	–	IC50 (FGFR1): 34.8 nM; IC50 (FGFR3): 4.8 nM
Cc1cc2[nH]nc(-c3ccc(-c4c(C)nn(CC(C)(C)O)c4C)nc3)c2nc1O[C@H](C)c1c(Cl)cncc1Cl [Cpd-175A, (R)-1-(4-(5-(5-(1-(3,5-dichloropyridin-4-yl)ethoxy)-6-methyl-1H-pyrazolo[4,3-b]pyridin-3-yl)pyridin-2-yl)-3,5-dimethyl-1H-pyrazol-1-yl)-2-methyl-2-propanol]	31.5	3.5	4.9	72.9	AUC(0-t) [1, 2]: 359 ng·h/mL; Cmax [1, 2]: 82.6 ng/mL; Tmax [1, 2]: 2 h; half-life [1, 2]: 3.2 h; AUC(0-inf) [1, 2]: 508 ng·h/mL; MRT inf [1, 2]: 3.5 h
Cc1nn(CC(C)(C)O)c(C)c1-c1ccc(-c2n[nH]c3ccc(O[C@H](C)c4c(Cl)cncc4Cl)nc23)cn1 [Cpd-158A]	23.6	2	2.6	55.4	–
CC(Oc1ccc2[nH]nc(-c3ccc(S(C)(=N)=O)nc3)c2n1)c1c(Cl)cncc1Cl (single isomer, unassigned) [Cpd-01D, (5-(5-(1-(3,5-dichloropyridin-4-yl)ethoxy)-1H-pyrazolo[4,3-b]pyridin-3-yl)pyridin-2-yl)(imino)(methyl)-λ^6-sulfonyl ketone]	–	–	–	–	IC50 (FGFR1): 36.1 nM; IC50 (FGFR3): 6.2 nM
C[C@@H](Oc1ccc2[nH]nc(-c3ccc(N4CCN(S(C)(=O)=O)CC4)nc3)c2n1)c1c(Cl)cncc1Cl [Cpd-119A]	45.9	–	7.3	–	–
CCN1CCN(c2ccc(Nc3cc(N(C)C(=O)Nc4c(Cl)c(OC)cc(OC)c4Cl)ncn3)cc2)CC1 [Infigratinib, reference compound]	8.1	4	11.9	277	AUC(0-t) [1, 2]: 103 ng·h/mL; Cmax [1, 2]: 22.2 ng/mL; Tmax [1, 2]: 3 h; half-life [1, 2]: 1.1 h; AUC(0-inf) [1, 2]: 106 ng·h/mL; MRT inf [1, 2]: 3.1 h

Continued, in another order:

IC50 (Ba/F3-FGFR1 cells) [nM]	IC50 (Ba/F3-FGFR2 cells) [nM]	IC50 (Ba/F3-FGFR3 cells) [nM]	IC50 (Ba/F3-FGFR4 cells) [nM]	SMILES	further results
23.9	–	5.06	–	C[C@@H](Oc1ccc2[nH]nc(-c3ccc(C4=CCS(=O)(=O)CC4)nc3)c2n1)c1c(Cl)cncc1Cl [Cpd-02A, (R)-4-(5-(5-(1-(3,5-dichloropyridin-4-yl)ethoxy)-1H-pyrazolo[4,3-b]pyridin-3-yl)pyridin-2-yl)-3,6-dihydro-2H-thiopyran 1,1-dioxide]	–
123	16.7	13.6	80.4	C[C@@H](Oc1ccc2[nH]nc(-c3ccc(N4CCC(C(C)(C)O)CC4)nc3)c2n1)c1c(Cl)cncc1Cl [Cpd-124A]	–
31.4	10.6	9.7	76.3	Cc1nn(C2CC2)cc1-c1ccc(-c2n[nH]c3ccc(O[C@H](C)c4c(Cl)cncc4Cl)nc23)cn1 [Cpd-145A, (R)-3-(6-(1-cyclopropyl-3-methyl-1H-pyrazol-4-yl)pyridin-3-yl)-5-(1-(3,5-dichloropyridin-4-yl)ethoxy)-1H-pyrazolo[4,3-b]pyridine]	AUC(0-t) [1, 2]: 1570 ng·h/mL; Cmax [1, 2]: 186 ng/mL; Tmax [1, 2]: 2 h; half-life [1, 2]: 4 h; AUC(0-inf) [1, 2]: 1610 ng·h/mL; MRT inf [1, 2]: 5.6 h
32.6	3.6	4	29.8	Cc1nn(CC(C)(C)O)cc1-c1ncc(-c2n[nH]c3ccc(O[C@H](C)c4c(Cl)cncc4Cl)nc23)cc1F [Cpd-162A, (R)-1-(4-(5-(5-(1-(3,5-dichloropyridin-4-yl)ethoxy)-1H-pyrazolo[4,3-b]pyridin-3-yl)-3-fluoropyridin-2-yl)-3-methyl-1H-pyrazol-1-yl)-2-methyl-2-propanol]	–
